Source: ChEMBL document CHEMBL5465560, “Selectivity Literature for EUbOPEN Chemogenomic Library” (2024)

Experiments:
[1] = molecular target: Tyrosine-protein kinase CSK (Homo sapiens) (UniProt P41240); assay: Selectivity interaction (Kinase panel (literature)) EUB0001199aCl CSK; conditions: at 1 µM
[2] = molecular target: Dual specificity mitogen-activated protein kinase kinase 1 (Homo sapiens, UniProt Q02750); assay: Selectivity interaction (Enzymatic assay) EUB0001199aCl MAP2K1
[3] = molecular target: [Pyruvate dehydrogenase (acetyl-transferring)] kinase isozyme 1, mitochondrial (Homo sapiens, UniProt Q15118); assay: Selectivity interaction (Upstate Kinase Profiler service (Millipore)) EUB0000056c PDK1; conditions: at 1 µM
[4] = molecular target: Serine/threonine-protein kinase MARK2 (Homo sapiens) (UniProt Q7KZI7); assay: Selectivity interaction (ActivX KiNativ screen (kinase selectivity in THP-1 cell lysates)) EUB0000639a MARK2; assay type: subcellular; conditions: lysate, at 0.04 µM
[5] = molecular target: Phosphatidylinositol 4-phosphate 5-kinase type-1 gamma (Homo sapiens) (UniProt O60331); assay: Selectivity interaction (KinomeScan (DiscoverX)) EUB0000695a PIP5K1C; conditions: at 100 nM
Sequence of Phosphatidylinositol 4-phosphate 5-kinase type-1 gamma (Homo sapiens) (O60331 whole entry): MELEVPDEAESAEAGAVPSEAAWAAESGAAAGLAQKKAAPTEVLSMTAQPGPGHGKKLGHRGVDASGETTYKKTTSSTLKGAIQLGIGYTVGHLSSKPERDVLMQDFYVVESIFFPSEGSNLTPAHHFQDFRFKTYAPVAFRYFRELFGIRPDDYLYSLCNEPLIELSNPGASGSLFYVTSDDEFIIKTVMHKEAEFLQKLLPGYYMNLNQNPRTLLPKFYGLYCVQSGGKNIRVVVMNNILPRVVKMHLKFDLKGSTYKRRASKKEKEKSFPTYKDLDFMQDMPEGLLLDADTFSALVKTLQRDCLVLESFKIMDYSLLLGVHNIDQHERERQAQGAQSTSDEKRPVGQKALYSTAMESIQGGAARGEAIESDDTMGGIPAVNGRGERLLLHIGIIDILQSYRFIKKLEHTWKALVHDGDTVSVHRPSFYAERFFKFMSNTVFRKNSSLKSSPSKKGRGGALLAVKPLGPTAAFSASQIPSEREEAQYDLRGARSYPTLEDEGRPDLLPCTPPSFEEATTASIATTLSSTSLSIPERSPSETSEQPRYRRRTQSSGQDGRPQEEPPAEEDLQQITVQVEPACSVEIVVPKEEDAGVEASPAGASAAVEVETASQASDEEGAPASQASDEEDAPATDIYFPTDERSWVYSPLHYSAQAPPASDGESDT

[6] = molecular target: Ribosomal protein S6 kinase alpha-4 (Homo sapiens) (UniProt O75676); assay: Selectivity interaction (KinomeScan (DiscoverX)) EUB0001049a RPS6KA4; conditions: at 1 µM
Sequence of Ribosomal protein S6 kinase alpha-4 (Homo sapiens) (O75676 whole entry, looked up): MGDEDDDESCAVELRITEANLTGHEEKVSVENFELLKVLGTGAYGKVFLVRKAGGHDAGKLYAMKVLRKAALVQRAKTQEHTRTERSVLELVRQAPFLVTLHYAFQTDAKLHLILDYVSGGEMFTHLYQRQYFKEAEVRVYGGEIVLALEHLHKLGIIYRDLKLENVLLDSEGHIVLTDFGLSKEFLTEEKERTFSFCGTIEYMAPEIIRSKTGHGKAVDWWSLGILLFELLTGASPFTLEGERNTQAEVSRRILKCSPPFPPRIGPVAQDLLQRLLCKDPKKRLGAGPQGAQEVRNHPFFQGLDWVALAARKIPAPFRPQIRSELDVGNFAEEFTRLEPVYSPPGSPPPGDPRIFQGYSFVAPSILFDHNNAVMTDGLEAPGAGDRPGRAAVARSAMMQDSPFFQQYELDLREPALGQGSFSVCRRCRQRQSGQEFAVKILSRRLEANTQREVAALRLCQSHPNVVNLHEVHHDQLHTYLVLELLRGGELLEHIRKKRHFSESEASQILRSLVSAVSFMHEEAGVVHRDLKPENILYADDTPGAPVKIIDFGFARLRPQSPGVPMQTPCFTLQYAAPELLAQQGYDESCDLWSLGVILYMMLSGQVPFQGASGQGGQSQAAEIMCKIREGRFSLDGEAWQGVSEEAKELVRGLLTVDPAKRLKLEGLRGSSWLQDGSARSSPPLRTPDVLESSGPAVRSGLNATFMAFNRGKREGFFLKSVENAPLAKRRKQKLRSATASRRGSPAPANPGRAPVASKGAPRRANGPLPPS

[7] = molecular target: T1, Cytoplasmic tyrosine-protein kinase BMX (Homo sapiens) (UniProt P51813); assay: Selectivity interaction (KinomeScan (DiscoverX)) EUB0001049a BMX; conditions: at 1 µM
T1 sequence (whole entry): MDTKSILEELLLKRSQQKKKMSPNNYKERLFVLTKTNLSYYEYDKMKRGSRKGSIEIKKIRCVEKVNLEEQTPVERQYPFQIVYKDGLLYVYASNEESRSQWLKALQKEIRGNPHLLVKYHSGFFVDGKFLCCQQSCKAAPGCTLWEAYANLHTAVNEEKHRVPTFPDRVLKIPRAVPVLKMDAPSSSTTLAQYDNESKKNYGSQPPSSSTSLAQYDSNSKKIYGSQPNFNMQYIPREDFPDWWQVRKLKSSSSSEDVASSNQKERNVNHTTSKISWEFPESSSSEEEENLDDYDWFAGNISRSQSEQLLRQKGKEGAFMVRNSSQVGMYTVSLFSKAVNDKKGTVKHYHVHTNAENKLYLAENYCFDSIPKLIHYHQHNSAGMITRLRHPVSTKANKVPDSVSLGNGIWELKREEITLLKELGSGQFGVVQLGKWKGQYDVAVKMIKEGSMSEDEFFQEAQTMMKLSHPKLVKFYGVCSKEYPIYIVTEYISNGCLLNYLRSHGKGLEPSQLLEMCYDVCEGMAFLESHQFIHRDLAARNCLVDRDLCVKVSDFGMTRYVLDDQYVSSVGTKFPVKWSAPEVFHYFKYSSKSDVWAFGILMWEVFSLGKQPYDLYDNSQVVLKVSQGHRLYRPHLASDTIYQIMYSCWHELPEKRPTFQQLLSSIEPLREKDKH

[8] = molecular target: T2, Interleukin-1 receptor-associated kinase 4 (Homo sapiens) (UniProt Q9NWZ3); assay: Selectivity interaction (Ambit KINOMEscan and KiNATiv profiling in Jurkat cells) EUB0000090b IRAK4; assay type: cell-based; conditions: at 1 µM
T2 sequence (whole entry): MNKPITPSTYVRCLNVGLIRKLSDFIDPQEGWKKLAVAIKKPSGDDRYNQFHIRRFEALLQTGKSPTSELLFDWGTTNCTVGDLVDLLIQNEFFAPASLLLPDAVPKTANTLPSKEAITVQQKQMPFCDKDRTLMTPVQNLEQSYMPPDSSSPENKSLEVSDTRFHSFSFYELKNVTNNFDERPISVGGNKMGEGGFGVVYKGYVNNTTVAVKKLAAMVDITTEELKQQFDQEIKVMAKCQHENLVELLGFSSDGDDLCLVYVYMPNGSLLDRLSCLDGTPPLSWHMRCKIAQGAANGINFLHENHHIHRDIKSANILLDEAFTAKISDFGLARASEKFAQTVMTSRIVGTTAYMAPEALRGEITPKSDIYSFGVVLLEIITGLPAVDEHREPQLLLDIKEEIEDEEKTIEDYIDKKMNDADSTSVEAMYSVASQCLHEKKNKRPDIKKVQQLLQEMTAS

[9] = molecular target: T3, Protein kinase C epsilon type (Homo sapiens) (UniProt Q02156); assay: Selectivity interaction (KinomeScan (DiscoverX)) EUB0000045b PRKCE
T3 sequence (whole entry): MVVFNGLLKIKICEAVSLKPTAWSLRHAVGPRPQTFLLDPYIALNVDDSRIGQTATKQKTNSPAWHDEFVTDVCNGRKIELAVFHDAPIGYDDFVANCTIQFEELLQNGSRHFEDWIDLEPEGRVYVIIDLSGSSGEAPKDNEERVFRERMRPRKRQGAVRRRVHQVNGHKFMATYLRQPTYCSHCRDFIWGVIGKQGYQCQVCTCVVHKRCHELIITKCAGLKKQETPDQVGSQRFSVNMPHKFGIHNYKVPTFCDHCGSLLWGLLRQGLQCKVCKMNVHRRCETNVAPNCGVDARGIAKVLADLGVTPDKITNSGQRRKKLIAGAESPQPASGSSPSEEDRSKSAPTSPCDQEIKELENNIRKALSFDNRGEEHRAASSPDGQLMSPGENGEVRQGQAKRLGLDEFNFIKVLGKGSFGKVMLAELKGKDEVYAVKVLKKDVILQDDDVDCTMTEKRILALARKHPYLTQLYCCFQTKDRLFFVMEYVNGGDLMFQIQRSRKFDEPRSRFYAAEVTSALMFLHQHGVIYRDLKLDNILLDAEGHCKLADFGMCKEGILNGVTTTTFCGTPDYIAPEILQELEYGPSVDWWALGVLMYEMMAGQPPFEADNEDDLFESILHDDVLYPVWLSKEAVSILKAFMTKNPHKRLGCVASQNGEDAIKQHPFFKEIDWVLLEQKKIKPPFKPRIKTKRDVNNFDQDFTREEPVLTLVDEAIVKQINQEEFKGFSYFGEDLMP

[10] = molecular target: Cyclin-dependent kinase 5 (Homo sapiens, UniProt Q00535); assay: Selectivity interaction (KinomeScan (DiscoverX)) EUB0001079a CDK5; conditions: at 1 µM
Sequence of Cyclin-dependent kinase 5 (Q00535 whole entry, looked up): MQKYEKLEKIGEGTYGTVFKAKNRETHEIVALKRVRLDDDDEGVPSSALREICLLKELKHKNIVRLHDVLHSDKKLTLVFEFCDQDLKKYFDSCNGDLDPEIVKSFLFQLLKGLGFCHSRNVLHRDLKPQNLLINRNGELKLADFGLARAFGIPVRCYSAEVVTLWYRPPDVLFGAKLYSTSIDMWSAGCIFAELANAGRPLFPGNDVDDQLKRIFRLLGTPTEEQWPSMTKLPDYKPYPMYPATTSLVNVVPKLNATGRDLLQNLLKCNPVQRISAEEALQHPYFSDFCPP

[11] = molecular target: Histone-lysine N-methyltransferase KMT5B (Homo sapiens) (UniProt Q4FZB7); conditions: at 1 µM
Sequence of Histone-lysine N-methyltransferase KMT5B (Homo sapiens) (Q4FZB7 whole entry, looked up): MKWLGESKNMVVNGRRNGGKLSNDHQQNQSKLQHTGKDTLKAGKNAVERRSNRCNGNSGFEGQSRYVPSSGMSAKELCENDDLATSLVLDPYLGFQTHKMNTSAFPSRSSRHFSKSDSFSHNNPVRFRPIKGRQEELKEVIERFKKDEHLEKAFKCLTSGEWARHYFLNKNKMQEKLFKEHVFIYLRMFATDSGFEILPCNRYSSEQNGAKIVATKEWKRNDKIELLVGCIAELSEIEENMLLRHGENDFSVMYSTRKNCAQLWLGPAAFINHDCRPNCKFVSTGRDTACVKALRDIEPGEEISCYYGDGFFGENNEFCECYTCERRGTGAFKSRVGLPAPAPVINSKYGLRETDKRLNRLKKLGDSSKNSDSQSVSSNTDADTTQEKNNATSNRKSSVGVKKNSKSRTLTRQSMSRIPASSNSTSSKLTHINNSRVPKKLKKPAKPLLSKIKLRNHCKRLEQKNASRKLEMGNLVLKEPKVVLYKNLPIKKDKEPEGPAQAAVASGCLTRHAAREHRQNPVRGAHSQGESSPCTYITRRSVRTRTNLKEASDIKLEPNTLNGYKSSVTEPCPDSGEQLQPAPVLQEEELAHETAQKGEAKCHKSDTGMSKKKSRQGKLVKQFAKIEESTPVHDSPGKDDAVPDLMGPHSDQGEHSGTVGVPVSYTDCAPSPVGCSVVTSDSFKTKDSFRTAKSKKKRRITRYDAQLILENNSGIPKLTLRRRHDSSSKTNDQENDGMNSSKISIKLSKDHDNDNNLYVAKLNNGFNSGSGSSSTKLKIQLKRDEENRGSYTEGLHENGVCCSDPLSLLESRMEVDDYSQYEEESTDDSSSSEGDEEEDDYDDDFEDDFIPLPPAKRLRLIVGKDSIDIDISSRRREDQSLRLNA

[12] = molecular target: RAF proto-oncogene serine/threonine-protein kinase (Homo sapiens) (UniProt P04049); assay: Selectivity interaction (Kinase panel (KiNativ target engagement assay in Jurkat cells)) EUB0001635a RAF1; assay type: cell-based; conditions: Selectivity number of off-targets 0.0, Selectivity number of targets 233.0, Source Knowledge https://www.sciencedirect.com/science/article/pii/S2451945619300674?via%3Dihub, at 1 µM
[13] = molecular target: Mitogen-activated protein kinase kinase kinase 4 (Homo sapiens) (UniProt Q9Y6R4); assay: Selectivity interaction (KinomeScan (DiscoverX)) EUB0000092b MAP3K4; conditions: at 10 µM
Sequence of Mitogen-activated protein kinase kinase kinase 4 (Homo sapiens) (Q9Y6R4 whole entry): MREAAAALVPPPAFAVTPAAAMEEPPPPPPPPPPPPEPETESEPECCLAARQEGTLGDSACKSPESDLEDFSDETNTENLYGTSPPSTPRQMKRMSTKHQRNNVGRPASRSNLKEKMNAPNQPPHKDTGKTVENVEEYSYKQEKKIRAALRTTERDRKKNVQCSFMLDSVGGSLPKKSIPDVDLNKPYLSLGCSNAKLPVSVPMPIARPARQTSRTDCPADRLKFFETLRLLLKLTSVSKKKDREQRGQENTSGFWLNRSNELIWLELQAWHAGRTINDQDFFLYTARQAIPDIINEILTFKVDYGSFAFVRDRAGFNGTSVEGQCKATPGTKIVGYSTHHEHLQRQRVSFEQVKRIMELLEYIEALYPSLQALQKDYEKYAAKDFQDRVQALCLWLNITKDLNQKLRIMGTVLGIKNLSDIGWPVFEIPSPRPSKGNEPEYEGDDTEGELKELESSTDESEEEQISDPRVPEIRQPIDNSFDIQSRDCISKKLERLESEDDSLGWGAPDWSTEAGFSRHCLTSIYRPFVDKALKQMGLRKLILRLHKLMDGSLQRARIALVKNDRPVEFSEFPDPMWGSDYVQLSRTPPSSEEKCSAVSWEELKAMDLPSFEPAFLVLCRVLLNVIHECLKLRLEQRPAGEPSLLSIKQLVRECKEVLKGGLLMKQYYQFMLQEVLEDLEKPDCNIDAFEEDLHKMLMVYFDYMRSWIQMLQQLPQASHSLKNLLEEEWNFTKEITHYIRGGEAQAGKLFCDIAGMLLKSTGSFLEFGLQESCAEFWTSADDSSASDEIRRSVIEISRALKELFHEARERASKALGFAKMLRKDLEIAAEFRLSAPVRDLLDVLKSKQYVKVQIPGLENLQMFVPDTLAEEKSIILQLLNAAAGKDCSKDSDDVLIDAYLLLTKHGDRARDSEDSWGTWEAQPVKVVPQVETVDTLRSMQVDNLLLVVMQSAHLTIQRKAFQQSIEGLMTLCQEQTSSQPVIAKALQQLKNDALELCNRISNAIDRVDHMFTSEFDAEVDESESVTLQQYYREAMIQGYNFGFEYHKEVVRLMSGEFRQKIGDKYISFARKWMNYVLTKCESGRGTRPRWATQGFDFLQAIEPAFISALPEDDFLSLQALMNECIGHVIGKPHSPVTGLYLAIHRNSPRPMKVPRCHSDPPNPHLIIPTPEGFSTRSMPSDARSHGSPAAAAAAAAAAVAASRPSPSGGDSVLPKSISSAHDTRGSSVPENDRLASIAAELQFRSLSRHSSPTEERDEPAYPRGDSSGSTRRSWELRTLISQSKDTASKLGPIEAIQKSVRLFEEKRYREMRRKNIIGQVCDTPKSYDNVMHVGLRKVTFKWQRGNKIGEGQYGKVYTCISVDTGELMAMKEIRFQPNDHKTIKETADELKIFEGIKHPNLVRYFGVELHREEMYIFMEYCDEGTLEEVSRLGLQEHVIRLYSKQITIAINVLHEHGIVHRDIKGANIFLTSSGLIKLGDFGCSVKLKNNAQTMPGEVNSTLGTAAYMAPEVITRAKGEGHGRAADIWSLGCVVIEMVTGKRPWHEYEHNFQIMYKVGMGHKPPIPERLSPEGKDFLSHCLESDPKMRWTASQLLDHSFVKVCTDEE

[14] = molecular target: Tyrosine-protein kinase receptor UFO (Homo sapiens) (UniProt P30530); assay: Selectivity interaction (KinomeScan (DiscoverX)) EUB0000618a AXL; conditions: at 10 µM

Sequence of Dual specificity mitogen-activated protein kinase kinase 1 (Q02750 whole entry): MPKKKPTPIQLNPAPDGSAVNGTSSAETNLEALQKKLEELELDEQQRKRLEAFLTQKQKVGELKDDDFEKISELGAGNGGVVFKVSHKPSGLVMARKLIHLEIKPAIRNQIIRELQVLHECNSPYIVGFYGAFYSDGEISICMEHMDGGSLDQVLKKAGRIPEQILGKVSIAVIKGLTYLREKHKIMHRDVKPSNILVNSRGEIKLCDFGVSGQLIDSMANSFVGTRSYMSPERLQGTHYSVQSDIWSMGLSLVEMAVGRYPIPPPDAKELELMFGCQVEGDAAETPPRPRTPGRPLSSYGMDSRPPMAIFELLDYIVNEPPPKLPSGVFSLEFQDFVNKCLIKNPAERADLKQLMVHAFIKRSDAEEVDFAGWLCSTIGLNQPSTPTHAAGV
Sequence of Tyrosine-protein kinase CSK (Homo sapiens) (P41240 2-450 limits assumed): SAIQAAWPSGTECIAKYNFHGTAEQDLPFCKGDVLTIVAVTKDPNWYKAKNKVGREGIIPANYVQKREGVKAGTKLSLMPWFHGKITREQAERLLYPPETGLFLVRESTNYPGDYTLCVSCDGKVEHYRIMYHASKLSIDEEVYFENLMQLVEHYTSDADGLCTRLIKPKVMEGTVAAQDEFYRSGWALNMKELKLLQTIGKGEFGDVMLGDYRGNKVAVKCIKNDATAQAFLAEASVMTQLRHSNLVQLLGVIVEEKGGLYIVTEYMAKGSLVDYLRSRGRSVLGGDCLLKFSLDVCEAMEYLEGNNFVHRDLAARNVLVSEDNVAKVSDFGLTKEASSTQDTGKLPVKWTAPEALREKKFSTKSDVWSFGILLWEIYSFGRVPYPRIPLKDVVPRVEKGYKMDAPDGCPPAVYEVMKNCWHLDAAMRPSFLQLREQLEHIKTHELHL

CN1Cc2nccc(-c3cn(C)nc3-c3ccc(F)cc3)c2C1=O
% of inhibition [1]: -3%
IC50 [2]: 10.2 µM

Cc1ccc(-c2ccc3c(ccc4sc5c(c43)NC[C@@H](C)NC5=O)n2)cn1
% of inhibition [3]: 0%

CC[C@@H]1[C@H](F)C(=O)N[C@@H]1COc1nccc2cc(C(N)=O)c(OC)cc12 [ZIMLOVISERTIB]
% of inhibition [4]: -13.3%

Cc1cc(F)c(C(=O)Nc2cccc(-c3nncn3C(C)C)n2)cc1-n1cnc(C2CC2)c1
% of control [5]: 100%

COc1cc(Nc2nc(C)cc(-c3cnn4nc(OC)ccc34)n2)cc(C(F)(F)F)c1
% of control [6]: 84%
% of control [7]: 87%

CN(C)C/C=C/C(=O)Nc1ccc(C(=O)N2CCCC(Nc3ncc(Cl)c(-c4c[nH]c5ccccc45)n3)C2)cc1 (stereo not given)
% of control [8]: 99%

C=CC(=O)Nc1cc(-n2c(=O)ccc3cnc4ccc(-c5ccc(NS(C)(=O)=O)cc5)cc4c32)ccc1C
% of control ([9]; at 1 µM): 100%
% of control ([9]; at 10 µM): 75%

Nc1cnc(N2CCc3cc(S(=O)(=O)Nc4c(F)cc(Cl)cc4F)cc(N4CCCC4=O)c32)nc1 [TP-020n]
% of control [10]: 100%

CNCCN1CCC(c2cc(CN(C)C(=O)c3cccc(Oc4ccccc4)c3)ccn2)CC1
% activity [11]: > 90%

C=CC(=O)Nc1ccc(C(=O)Nc2[nH]nc3c2CN(C(=O)N[C@H](CN(C)C)c2ccccc2)C3(C)C)cc1
% of engagement [12]: -6.3%

CCC(=O)N1CCN(c2ccc(-n3c(=O)ccc4cnc5ccc(-c6cnc7ccccc7c6)cc5c43)cc2C(F)(F)F)CC1
% of control [13]: 47%

O[C@H]1CC[C@H](Nc2ncc3nc(Nc4c(F)cc(F)cc4F)n([C@H]4CCOC4)c3n2)CC1
% of control [14]: 86%
